The text below walks through data of US20230219979A1, “PYRAZOLO[1,5-a]PYRIDINE COMPOUND, PREPARATION METHOD THEREFOR AND USE THEREOF” (SHENZHEN ZHONGGE BIOLOGICAL TECHNOLOGY CO., LTD., priority 2019, published 2023).

The target of assay [1] is VEGFR2 kinase (Homo sapiens, UniProt P35968). The experiment in a line: HTRF method for testing the inhibitory activity of compounds against VEGFR2. It is filed as biochemical.
In assay [2] the target is Wild-type RET kinase (Homo sapiens, UniProt P07949). As to the kind of experiment: HTRF method for testing the inhibitory activity of compounds against RET. It is filed as biochemical. To be noted: HTRF; read-out: Wild-type RET kinase. On the technique in general: TR-FRET usually uses a lanthanide donor and a delayed reading to cut background.
Assay [3] deals with T1, CCDC6-RET (Homo sapiens, UniProt P07949).
T1 construct: CCDC6 (fusion partner, N-terminal part); the other entry of the earlier key: CCDC6 (Q16204, Coiled-coil domain-containing protein 6)
T1 sequence (P07949 with tags, fused parts or gaps): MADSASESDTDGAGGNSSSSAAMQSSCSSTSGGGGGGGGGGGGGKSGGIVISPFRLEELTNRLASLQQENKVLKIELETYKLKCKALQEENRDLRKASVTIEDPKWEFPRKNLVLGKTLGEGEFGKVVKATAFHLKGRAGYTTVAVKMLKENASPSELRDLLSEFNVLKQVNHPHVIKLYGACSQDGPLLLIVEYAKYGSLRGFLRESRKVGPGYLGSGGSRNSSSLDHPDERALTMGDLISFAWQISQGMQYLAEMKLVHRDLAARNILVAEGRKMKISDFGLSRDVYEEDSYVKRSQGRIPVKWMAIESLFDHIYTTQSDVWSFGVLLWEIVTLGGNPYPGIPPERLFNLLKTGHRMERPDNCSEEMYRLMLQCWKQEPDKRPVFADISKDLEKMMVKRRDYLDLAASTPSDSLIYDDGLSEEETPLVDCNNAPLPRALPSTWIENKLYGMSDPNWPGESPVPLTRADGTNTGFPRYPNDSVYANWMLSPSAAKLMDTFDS
The experiment in a line: Inhibitory activity against RET gene fusion CCDC6-RET. To be noted: read-out: median inhibitory activity (IC50) against CCDC6-RET. It counts as biochemical.

For assay [4], the target named is RET V804M (Homo sapiens, UniProt P07949, V804M). As to the kind of experiment: Inhibitory activity against RET kinase mutant RET V804M. It is filed as biochemical. Conditions: read-out: median inhibitory activity (IC50) against RET V804M.
For assay [5], the target named is T2, Ba/F3-KIF5B-RET cell (Homo sapiens, UniProt P07949).
T2 construct: fused on or other part: P33176 (Kinesin-1 heavy chain)
As to the kind of experiment: CellTiter-Glo luminescence assay, inhibitory activity against Ba/F3-KIF5B-RET cell. Conditions: 72 h, read-out: Ba/F3-KIF5B-RET cell activity. It is filed as cell-based. The essentials: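 Ba/F3 cells stably expressing human KIF5B-RET, 800 per well, treated 72 h at 37° C with 10 compound concentrations from 5000 to 0.254 nM (0.5% DMSO). Viability by CellTiter-Glo luminescence; IC50 from curve fitting.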

The target in assay [6] is RET M918T (Homo sapiens, UniProt P07949, M918T). The experiment in a line: Inhibitory activity against RET kinase mutant RET M918T. It is filed as biochemical. To be noted: read-out: median inhibitory activity (IC50) against RET M918T.
In assay [7] the target is RET G810S kinase (Homo sapiens, UniProt P07949, G810S). The experiment in a line: HTRF method for testing the inhibitory activity against RET G810S. To be noted: for IC50: HTRF; for inhibitory activity against G810S (in words): mutant strain of RET kinase. It is filed as biochemical.
Assay [8] deals with RET G810R kinase (Homo sapiens, UniProt P07949, G810R). As to the kind of experiment: HTRF method for testing the inhibitory activity against RET G810R. It counts as biochemical. To be noted: for IC50: HTRF; for inhibitory activity against G810R (in words): mutant strain of RET kinase.
Sequence of RET G810R kinase (P07949 29-1114 G810R): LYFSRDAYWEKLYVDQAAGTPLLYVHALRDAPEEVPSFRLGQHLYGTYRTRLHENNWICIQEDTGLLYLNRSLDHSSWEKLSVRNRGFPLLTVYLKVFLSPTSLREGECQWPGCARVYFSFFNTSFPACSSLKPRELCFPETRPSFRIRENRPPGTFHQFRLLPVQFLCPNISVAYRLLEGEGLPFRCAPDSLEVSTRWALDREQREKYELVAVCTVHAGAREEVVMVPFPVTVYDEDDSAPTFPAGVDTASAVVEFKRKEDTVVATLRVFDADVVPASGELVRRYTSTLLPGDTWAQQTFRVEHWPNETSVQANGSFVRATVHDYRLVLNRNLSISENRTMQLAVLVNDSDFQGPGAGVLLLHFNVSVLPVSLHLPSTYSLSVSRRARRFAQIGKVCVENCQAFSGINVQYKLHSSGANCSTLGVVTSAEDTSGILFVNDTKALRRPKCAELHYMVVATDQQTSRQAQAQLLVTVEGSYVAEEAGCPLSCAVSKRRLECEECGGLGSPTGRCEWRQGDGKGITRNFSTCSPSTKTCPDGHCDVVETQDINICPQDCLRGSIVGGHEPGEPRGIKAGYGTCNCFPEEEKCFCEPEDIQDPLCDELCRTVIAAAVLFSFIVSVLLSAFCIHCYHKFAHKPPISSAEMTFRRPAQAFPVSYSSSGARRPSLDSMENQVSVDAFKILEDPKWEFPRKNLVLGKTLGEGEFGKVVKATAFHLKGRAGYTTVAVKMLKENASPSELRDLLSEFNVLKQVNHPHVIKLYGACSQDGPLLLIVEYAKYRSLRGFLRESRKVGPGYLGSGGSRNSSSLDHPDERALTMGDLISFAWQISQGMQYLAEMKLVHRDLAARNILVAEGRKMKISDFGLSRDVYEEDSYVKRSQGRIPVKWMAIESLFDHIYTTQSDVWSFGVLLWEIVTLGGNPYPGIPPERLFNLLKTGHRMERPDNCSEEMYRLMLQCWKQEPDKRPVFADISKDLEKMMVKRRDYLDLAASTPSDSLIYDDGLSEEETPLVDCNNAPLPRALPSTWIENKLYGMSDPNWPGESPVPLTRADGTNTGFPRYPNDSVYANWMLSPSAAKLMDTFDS

Sequence of Wild-type RET kinase (P07949 29-1114): as the sequence (P07949 29-1114 G810R) above, with R782G counted along it
Sequence of RET G810S kinase (P07949 29-1114 G810S): as the sequence (P07949 29-1114 G810R) above, with R782S counted along it
Sequence of VEGFR2 kinase (P35968 20-1356): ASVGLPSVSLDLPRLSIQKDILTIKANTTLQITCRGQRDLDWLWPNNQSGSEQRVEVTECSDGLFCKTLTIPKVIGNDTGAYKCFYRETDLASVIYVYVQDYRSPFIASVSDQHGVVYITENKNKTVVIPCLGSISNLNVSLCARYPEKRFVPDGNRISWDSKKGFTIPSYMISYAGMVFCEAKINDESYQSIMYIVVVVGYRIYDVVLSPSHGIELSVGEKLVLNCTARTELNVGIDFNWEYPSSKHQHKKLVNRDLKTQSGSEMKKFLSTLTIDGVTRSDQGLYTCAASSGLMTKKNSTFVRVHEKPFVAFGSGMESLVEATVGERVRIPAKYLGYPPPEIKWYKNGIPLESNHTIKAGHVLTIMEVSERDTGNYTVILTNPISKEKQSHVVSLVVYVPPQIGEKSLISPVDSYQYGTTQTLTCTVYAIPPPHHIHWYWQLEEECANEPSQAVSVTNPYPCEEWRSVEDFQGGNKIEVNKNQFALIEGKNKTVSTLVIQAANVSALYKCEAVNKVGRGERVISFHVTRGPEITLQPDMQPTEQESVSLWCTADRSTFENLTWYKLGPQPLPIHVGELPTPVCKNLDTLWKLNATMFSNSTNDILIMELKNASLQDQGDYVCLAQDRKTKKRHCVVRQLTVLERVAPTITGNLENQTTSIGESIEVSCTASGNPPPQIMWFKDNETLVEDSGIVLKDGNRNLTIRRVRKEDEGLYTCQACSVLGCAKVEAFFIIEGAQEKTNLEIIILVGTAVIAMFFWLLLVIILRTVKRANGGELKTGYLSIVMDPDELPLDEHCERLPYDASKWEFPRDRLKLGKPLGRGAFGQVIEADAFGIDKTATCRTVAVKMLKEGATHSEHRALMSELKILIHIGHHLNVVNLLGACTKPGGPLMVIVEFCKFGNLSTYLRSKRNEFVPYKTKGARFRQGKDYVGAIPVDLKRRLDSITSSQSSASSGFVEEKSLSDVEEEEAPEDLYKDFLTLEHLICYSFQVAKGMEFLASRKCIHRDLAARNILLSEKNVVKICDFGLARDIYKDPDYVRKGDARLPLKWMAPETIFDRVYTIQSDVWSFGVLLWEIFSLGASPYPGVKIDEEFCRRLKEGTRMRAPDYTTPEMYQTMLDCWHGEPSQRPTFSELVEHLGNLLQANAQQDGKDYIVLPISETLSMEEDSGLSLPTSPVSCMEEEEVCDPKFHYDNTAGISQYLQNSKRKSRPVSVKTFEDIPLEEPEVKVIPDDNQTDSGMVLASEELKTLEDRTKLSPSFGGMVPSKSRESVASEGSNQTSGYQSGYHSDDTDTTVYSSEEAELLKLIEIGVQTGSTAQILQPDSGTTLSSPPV
T2 sequence (P07949 whole entry, change not shown, the tested form may be a part): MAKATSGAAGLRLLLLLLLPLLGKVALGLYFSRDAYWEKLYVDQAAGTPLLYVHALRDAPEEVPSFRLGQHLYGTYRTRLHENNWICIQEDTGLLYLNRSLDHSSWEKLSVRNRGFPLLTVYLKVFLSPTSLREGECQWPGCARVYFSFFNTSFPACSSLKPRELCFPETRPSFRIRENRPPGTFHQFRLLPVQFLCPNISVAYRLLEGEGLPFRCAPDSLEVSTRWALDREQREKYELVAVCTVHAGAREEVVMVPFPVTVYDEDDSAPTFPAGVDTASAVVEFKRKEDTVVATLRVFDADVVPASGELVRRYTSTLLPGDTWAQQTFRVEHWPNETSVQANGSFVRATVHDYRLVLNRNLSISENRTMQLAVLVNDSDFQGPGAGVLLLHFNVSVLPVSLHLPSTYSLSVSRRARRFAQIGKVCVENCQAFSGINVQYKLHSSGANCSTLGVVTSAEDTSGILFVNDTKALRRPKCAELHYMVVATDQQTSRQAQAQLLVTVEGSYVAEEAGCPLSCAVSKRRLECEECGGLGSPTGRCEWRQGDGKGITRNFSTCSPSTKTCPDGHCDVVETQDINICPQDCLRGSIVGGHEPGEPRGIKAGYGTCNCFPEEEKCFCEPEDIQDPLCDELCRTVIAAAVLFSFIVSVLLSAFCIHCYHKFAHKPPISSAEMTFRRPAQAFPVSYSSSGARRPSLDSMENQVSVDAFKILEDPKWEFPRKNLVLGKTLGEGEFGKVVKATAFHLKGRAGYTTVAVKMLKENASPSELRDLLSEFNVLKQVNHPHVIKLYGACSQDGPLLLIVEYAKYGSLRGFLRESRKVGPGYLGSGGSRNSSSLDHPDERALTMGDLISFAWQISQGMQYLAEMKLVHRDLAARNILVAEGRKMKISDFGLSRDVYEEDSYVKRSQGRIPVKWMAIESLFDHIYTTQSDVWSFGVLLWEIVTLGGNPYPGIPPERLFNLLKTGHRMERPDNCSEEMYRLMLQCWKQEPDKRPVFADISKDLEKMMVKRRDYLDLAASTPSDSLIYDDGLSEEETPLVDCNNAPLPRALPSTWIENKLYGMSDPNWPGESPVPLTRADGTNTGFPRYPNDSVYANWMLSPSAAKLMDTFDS
Sequence of RET V804M (P07949 29-1114 V804M): as the sequence (P07949 29-1114 G810R) above, with V776M, R782G counted along it
Sequence of RET M918T (P07949 29-1114 M918T): as the sequence (P07949 29-1114 G810R) above, with R782G, M890T counted along it

In the case of `CCNc1cc(-c2ccc(N3CC4CC(C3)N4Cc3ccc(-n4cc(F)cn4)nc3)nc2)c2c(C#N)cnn2c1` [Compound 52, 6-(ethylamino)-4-(6-(6-((6-(4-fluoro-1H-pyrazol-1-yl)pyridin-3-yl)methyl)-3,6-diazabicyclo[3.1.1]heptan-3-yl)pyridin-3-yl)pyrazolo[1,5-a]pyridine-3-carbonitrile], the IC50 was 39 nM in assay [1]; 2.02 nM in assay [2]; under 5 nM in assay [3]; under 5 nM in assay [4]; under 5 nM in assay [6]. Moreover, the GI50 in assay [5] was 142 nM.
Consider `CCNc1cc(-c2cnc(N3CC4CC(C3)N4Cc3ccc(OC)nc3)cn2)c2c(C#N)cnn2c1` [Compound 29, 6-(ethylamino)-4-(5-(-6-((6-methoxypyridin-3-yl)methyl)-3,6-diazabicyclo[3.1.1]heptane-3-yl)pyrazin-2-yl)pyrazolo[1,5-a]pyridine-3-carbonitrile], for which the IC50 in assay [1] was 56 nM; in assay [7], 1.93 nM; in assay [2], 0.181 nM; in assay [3] it was under 5 nM; in assay [4], under 5 nM; in assay [6] it was under 5 nM. The same molecule came in with an IC50 in assay [8] of 23.8 nM. In assay [7], the “inhibitory activity against G810S (in words)” value was “good inhibitory activity”. Moreover, in assay [5], the GI50 stood at 4.43 nM. In assay [8], the “inhibitory activity against G810R (in words)” value was “good inhibitory activity”.
For the molecule `COc1ccc(CN2C3CC2CN(c2ccc(-c4cc(Br)cn5ncc(C#N)c45)cn2)C3)cn1` [Compound 48], the IC50 in assay [1] stood at 875 nM; in assay [7], 13 nM; in assay [2] it was 2.89 nM; in assay [8], 63.2 nM. Moreover, the “inhibitory activity against G810S (in words)” value in assay [7] is “good inhibitory activity”. Besides, the GI50 in assay [5] amounted to 105 nM. In assay [8], the “inhibitory activity against G810R (in words)” value is “good inhibitory activity”.
In the case of `COc1ccc(CN2C3CC2CN(c2ccc(-c4cc(NCC(C)(C)O)cn5ncc(C#N)c45)cn2)C3)cn1` [Compound 63, 6-((2-hydroxy-2-methylpropyl)amino)-4-(6-(6-((6-methoxypyridin-3-yl)methyl)-3,6-diazabicyclo[3.1.1]heptan-3-yl)pyridin-3-yl)pyrazolo[1,5-a]pyridine-3-carbonitrile], the IC50 in assay [1] worked out at 65.2 nM; in assay [7] it was 15 nM; in assay [2], 0.47 nM; in assay [8], 76.9 nM. The “inhibitory activity against G810S (in words)” value in assay [7] is recorded as “good inhibitory activity”. For the same molecule, in assay [5], the GI50 came to 3.39 nM. For the same molecule, the “inhibitory activity against G810R (in words)” value in assay [8] is on record as “good inhibitory activity”.
Turning to `COc1ccc(CN2C3CC2CN(c2ccc(-c4cc(NCCF)cn5ncc(C#N)c45)cn2)C3)cn1` [Compound 49, 6-((2-fluoroethyl)amino)-4-(6-(6-((6-methoxypyridin-3-yl)methyl)-3,6-diazabicyclo[3.1.1]hept-3-yl)pyridin-3-yl)pyrazolo[1,5-a]pyridine-3-carbonitrile], the IC50 turned out to be 28.4 nM in assay [1], 0.53 nM in assay [7], 0.19 nM in assay [2] and 1.85 nM in assay [8]. Moreover, the “inhibitory activity against G810S (in words)” value in assay [7] is on record as “good inhibitory activity”. Besides, the GI50 in assay [5] was 1.52 nM. In assay [8], the “inhibitory activity against G810R (in words)” value is recorded as “good inhibitory activity”.
As for `COc1ccc(CN2C3CC2CN(c2ccc(-c4cc(NCC(F)(F)F)cn5ncc(C#N)c45)cn2)C3)cn1` [Compound 56, 4-(6-(6-((6-methoxypyridin-3-yl)methyl)-3,6-diazabicyclo[3.1.1]heptan-3-yl)pyridin-3-yl)-6-((2,2,2-trifluoroethyl)amino)pyrazolo[1,5-a]pyridine-3-carbonitrile], the IC50 in assay [1] worked out at 103 nM; in assay [7], 4.73 nM; in assay [2] it was 0.2 nM; in assay [8], 19.3 nM. In addition, in assay [7], the “inhibitory activity against G810S (in words)” value was “good inhibitory activity”. Further, the GI50 in assay [5] was 8.53 nM. For the same molecule, the “inhibitory activity against G810R (in words)” value in assay [8] was “good inhibitory activity”.
Consider `COc1ccc(CN2C3CC2CN(c2ccc(-c4cc(NCC(C)C)cn5ncc(C#N)c45)cn2)C3)cn1` [Compound 67, 6-(isobutylamino)-4-(6-(6-((6-methoxypyridin-3-yl)methyl)-3,6-diazabicyclo[3.1.1]hept-3-yl)pyridin-3-yl)pyrazolo[1,5-a]pyridine-3-carbonitrile], for which the IC50 amounted to 45.4 nM in assay [1], 11 nM in assay [7], 0.15 nM in assay [2] and 90.9 nM in assay [8]. Besides, the “inhibitory activity against G810S (in words)” value in assay [7] is on record as “good inhibitory activity”. For the same molecule, the GI50 in assay [5] came out at 2.19 nM. Also, the “inhibitory activity against G810R (in words)” value in assay [8] was “good inhibitory activity”.
